Reference: ChEMBL document CHEMBL1148319, “A molecular basis for the selectivity of thiadiazole urea inhibitors with stromelysin-1 and gelatinase-A from generalized born molecular dynamics simulations” (J Med Chem, 2004)

molecular target: 72 kDa type IV collagenase (Homo sapiens, UniProt P08253)
Sequence (P08253 whole entry): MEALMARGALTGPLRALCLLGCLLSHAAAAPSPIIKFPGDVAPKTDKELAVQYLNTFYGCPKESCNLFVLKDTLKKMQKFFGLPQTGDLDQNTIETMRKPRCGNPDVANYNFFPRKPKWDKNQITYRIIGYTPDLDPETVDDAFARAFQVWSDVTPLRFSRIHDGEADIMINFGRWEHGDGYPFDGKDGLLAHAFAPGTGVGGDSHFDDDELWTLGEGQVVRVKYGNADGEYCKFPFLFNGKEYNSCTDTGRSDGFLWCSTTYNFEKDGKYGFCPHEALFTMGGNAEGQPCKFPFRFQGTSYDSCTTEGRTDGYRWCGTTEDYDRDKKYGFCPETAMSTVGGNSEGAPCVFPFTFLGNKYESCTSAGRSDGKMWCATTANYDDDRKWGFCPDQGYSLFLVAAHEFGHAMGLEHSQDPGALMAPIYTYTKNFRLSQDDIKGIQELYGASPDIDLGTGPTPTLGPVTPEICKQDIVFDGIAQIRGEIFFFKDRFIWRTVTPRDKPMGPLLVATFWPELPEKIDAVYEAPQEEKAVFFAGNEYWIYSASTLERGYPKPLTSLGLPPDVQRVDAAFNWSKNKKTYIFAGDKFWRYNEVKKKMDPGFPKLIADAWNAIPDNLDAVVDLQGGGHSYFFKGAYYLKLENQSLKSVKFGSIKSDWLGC
Description: Inhibition of human Matrix metalloprotease-2 (gelatinase-A)

Structure (SMILES) | Ki [µM]
CNC(=O)[C@H](CO)NC(=O)Nc1n[nH]c(=S)s1 | > 200
CNC(=O)CNC(=O)Nc1n[nH]c(=S)s1 | > 100
NC(=O)[C@H](Cc1ccccc1)NC(=O)Nc1nnc(S)s1 | > 200
CNC(=O)[C@H](Cc1c(F)c(F)c(F)c(F)c1F)NC(=O)Nc1nnc(S)s1 | 3
CNC(=O)[C@H](Cc1ccccc1)NC(=O)Nc1nnc(S)s1 | 3
CN(C)C(=O)[C@H](Cc1ccccc1)NC(=O)Nc1nnc(S)s1 | 226
